The values below come from PubChem BioAssay (NCI).

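Dose response: 5 concentrations. Exposure: 48 h. Format: 96-well plates. Endpoint: linear interpolation; highest concentration if not reached. GI50: concentration for 50% inhibition of growth. TGI marks complete inhibition of growth.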 A value given as a limit tells only on which side of the number the result lay.

Test systems include NCI-H522 lung; T-47D breast; MDA-MB-435; NCI-H226 lung; HOP-62 NSCLC; MOLT-4 leukemia; SK-MEL-5 melanoma.
Experiment in all cases: DTP human tumour cell line panel, 48 h

As a reminder, the GI50 is the concentration at which growth is held to half of that of the control. By TGI is commonly meant the concentration at which net growth stops. Lower therefore signals more potent growth arrest. Take `O=C(/C=C/OC(=O)c1cccc(Cl)c1)c1ccc(Cl)cc1`: the GI50 is more than 93.3 µM in the experiment with NCI-H522 lung; more than 48.8 µM in the experiment on T-47D breast; 44.6 µM in the experiment with MDA-MB-435; more than 79 µM with NCI-H226 lung; more than 100 µM with HOP-62 NSCLC; 31.8 µM in the experiment on MOLT-4 leukemia. In addition, the GI50 in the experiment with SK-MEL-5 melanoma is 55.2 µM. The TGI with NCI-H522 lung is more than 100 µM; in the experiment with T-47D breast it was more than 100 µM; with MDA-MB-435, more than 100 µM; in the experiment with NCI-H226 lung it was more than 100 µM; with HOP-62 NSCLC, more than 100 µM; in the experiment on MOLT-4 leukemia, more than 78.6 µM. For the same molecule, the TGI in the experiment on SK-MEL-5 melanoma is more than 100 µM.
Regarding `CCn1ccc(NS(=O)(=O)c2ccc(N)cc2)nc1=O`, the GI50 in the experiment on NCI-H522 lung, in the experiment with T-47D breast, in the experiment with MDA-MB-435, in the experiment with NCI-H226 lung, with HOP-62 NSCLC and in the experiment with MOLT-4 leukemia was more than 100 µM throughout. Moreover, in the experiment on SK-MEL-5 melanoma, the GI50 is more than 100 µM. Besides, the TGI in the experiment with NCI-H522 lung, with T-47D breast, with MDA-MB-435, in the experiment on NCI-H226 lung, with HOP-62 NSCLC and with MOLT-4 leukemia was more than 100 µM each time. The molecule further displayed a TGI in the experiment with SK-MEL-5 melanoma of more than 100 µM.
Take `CN(C)c1ccc2nc(CC(O)(C(F)(F)F)C(F)(F)F)ccc2c1`: the TGI with NCI-H522 lung, in the experiment on T-47D breast, with MDA-MB-435, with NCI-H226 lung, in the experiment on HOP-62 NSCLC and in the experiment on MOLT-4 leukemia was more than 10 µM throughout. The same molecule had a TGI in the experiment on SK-MEL-5 melanoma of more than 10 µM.
Take `COc1cnc2c(c1)C(=O)c1c-2n(CCCN2CCNCC2)c(=O)c2cc([N+](=O)[O-])ccc12`: the GI50 with NCI-H522 lung was 0.506 µM; with MDA-MB-435, 1.25 µM; in the experiment with HOP-62 NSCLC, 0.065 µM; in the experiment on MOLT-4 leukemia it was 0.0365 µM; in the experiment with SK-MEL-5 melanoma, 0.403 µM. The TGI in the experiment with NCI-H522 lung was 2.03 µM; in the experiment with MDA-MB-435 it was 2.68 µM; in the experiment on HOP-62 NSCLC, 0.572 µM; with MOLT-4 leukemia it was 1.05 µM; in the experiment with SK-MEL-5 melanoma, 1.62 µM.
Take `CN(C)CCNC(=O)NC[C@H]1CC[C@@H]2[C@H](O1)c1cc(C(F)(F)F)ccc1N[C@H]2c1ccccc1`: the GI50 with NCI-H522 lung was 0.0506 µM; in the experiment with T-47D breast it was 0.371 µM; with MDA-MB-435, 0.0278 µM; in the experiment with NCI-H226 lung, 15.1 µM; in the experiment on HOP-62 NSCLC, 1.71 µM; in the experiment with MOLT-4 leukemia, 0.373 µM. Besides, in the experiment with SK-MEL-5 melanoma, the GI50 was 0.0999 µM. Moreover, the TGI in the experiment with NCI-H522 lung was 0.303 µM; in the experiment on T-47D breast it was 17.8 µM; in the experiment with MDA-MB-435, 0.0718 µM; in the experiment on NCI-H226 lung, 43.4 µM; with HOP-62 NSCLC, 24.1 µM; in the experiment on MOLT-4 leukemia, 19.6 µM. In the experiment on SK-MEL-5 melanoma, this molecule came in with a TGI of 15.8 µM.
As to `C=CCc1c(O)c(C(=O)/C=C/c2ccccc2)c(OC)c2ccoc12`, the GI50 with NCI-H522 lung is 2.15 µM; with T-47D breast, 4.11 µM; with MDA-MB-435 it was 2.78 µM; in the experiment with NCI-H226 lung, 1.48 µM; in the experiment with HOP-62 NSCLC it was 5.32 µM; in the experiment on MOLT-4 leukemia it was 2.17 µM. In addition, the GI50 in the experiment on SK-MEL-5 melanoma is 2.66 µM. The TGI with NCI-H522 lung came to 9.28 µM; in the experiment with T-47D breast, 22.4 µM; with MDA-MB-435, 10.9 µM; in the experiment on NCI-H226 lung it was 3.21 µM; in the experiment on HOP-62 NSCLC, 17.8 µM; in the experiment on MOLT-4 leukemia it was 16.6 µM. In addition, in the experiment on SK-MEL-5 melanoma, the TGI stood at 10.9 µM.
`CN(C)c1ccc(N=C2C=CC(=O)c3ccccc32)cc1`: the GI50 with NCI-H522 lung is 1.97 µM; in the experiment on T-47D breast, 2.27 µM; with MDA-MB-435, 1.85 µM; with NCI-H226 lung, 18.2 µM; with HOP-62 NSCLC it was 2.19 µM; in the experiment on MOLT-4 leukemia it was 2.45 µM. Moreover, in the experiment with SK-MEL-5 melanoma, the GI50 was 1.34 µM. In addition, the TGI in the experiment on NCI-H522 lung came out at 4.51 µM; in the experiment with T-47D breast, 6.01 µM; with MDA-MB-435 it was 3.58 µM; in the experiment with NCI-H226 lung, 54 µM; in the experiment with HOP-62 NSCLC, 6.62 µM; in the experiment with MOLT-4 leukemia, 6.21 µM. In addition, the concentration for total growth inhibition (TGI) with SK-MEL-5 melanoma is 2.72 µM.
As for `Cc1nccc2c3ccc(OCc4cn(-c5ccc(Cl)cc5)nn4)cc3n(CC(C)C)c12`, the GI50 with NCI-H522 lung is 4.17 µM; with T-47D breast, 1.34 µM; in the experiment with MDA-MB-435 it was 3.38 µM; with NCI-H226 lung it was 3.47 µM; in the experiment with MOLT-4 leukemia it was 1.14 µM; in the experiment on SK-MEL-5 melanoma, 1.64 µM. The TGI in the experiment with NCI-H522 lung was 15.5 µM; in the experiment on T-47D breast, 11.3 µM; in the experiment with MDA-MB-435, more than 33.3 µM; with NCI-H226 lung, 13.7 µM; with MOLT-4 leukemia, 6.54 µM; in the experiment on SK-MEL-5 melanoma, 6.15 µM.
Regarding `CCCN1CCC(c2ccc(Nc3nc(Nc4cc(F)ccc4C(N)=O)c4cc[nH]c4n3)c(OC)c2)CC1`, the GI50 was 3.42 µM in the experiment on NCI-H522 lung; 4.14 µM in the experiment on T-47D breast; 0.852 µM in the experiment on MDA-MB-435; 3.83 µM in the experiment on NCI-H226 lung; 2.71 µM in the experiment with HOP-62 NSCLC; 4.4 µM in the experiment with MOLT-4 leukemia. In the experiment on SK-MEL-5 melanoma, the GI50 was 3.41 µM. For the same molecule, the TGI is 6.69 µM in the experiment with NCI-H522 lung; 9.17 µM in the experiment with T-47D breast; 5.86 µM with MDA-MB-435; 8.91 µM with NCI-H226 lung; 5.84 µM in the experiment with HOP-62 NSCLC; 12.3 µM with MOLT-4 leukemia. In the experiment on SK-MEL-5 melanoma, this molecule had a total growth inhibition concentration (TGI) of 6.63 µM.
Consider `C#Cc1cccc(NC(=O)c2ccc(NC(=O)CCl)cc2)c1`, for which the GI50 in the experiment with NCI-H522 lung is 13.5 µM; in the experiment with T-47D breast it was 31.2 µM; in the experiment on MDA-MB-435 it was 43.8 µM; in the experiment on NCI-H226 lung it was 48.7 µM; with HOP-62 NSCLC, 68.3 µM; in the experiment with MOLT-4 leukemia, 12.4 µM. Further, in the experiment with SK-MEL-5 melanoma, the GI50 is 24.9 µM. In addition, the TGI in the experiment with NCI-H522 lung was 35 µM; with T-47D breast, more than 82.5 µM; in the experiment on MDA-MB-435, more than 82.5 µM; with NCI-H226 lung it was more than 82.5 µM; in the experiment with HOP-62 NSCLC it was more than 82.5 µM; in the experiment on MOLT-4 leukemia it was 40 µM. In the experiment on SK-MEL-5 melanoma, this molecule came in with a TGI of more than 82.5 µM.
As for `O=C(O[C@H]1CCN2C[C@H]3C[C@H](CN4C(=O)CCC[C@H]34)[C@@H]2C1)c1ccc(O)cc1`, the concentration for total growth inhibition (TGI) in the experiment on NCI-H522 lung, in the experiment on T-47D breast, with MDA-MB-435, in the experiment on NCI-H226 lung and with HOP-62 NSCLC was more than 100 µM throughout.
